Source: patent US11549123B2, “Plant EPSP synthases and methods of use” (PIONEER HI-BRED INTERNATIONAL, INC., priority 2015, dated 2023)

Experiments:
[1] = target: EPSPS enzyme comprising 103I, 107S, and 445G (Zea mays, UniProt O24566, N444G/P106S/T102I); assay: kcat/KM*KI of EPSPS comprising 103I, 107S, 445G; format: biochemical; details: glyphosate as inhibitor
Description: The EPSPS polypeptides and active variants and fragments thereof disclosed herein may have improved catalytic capacity in the presence of glyphosate when compared to previously identified EPSPS polypeptides. The parameter that best indicates the fitness of this trait in vivo is kcat/KM*KI. The EPSPS polypeptides disclosed herein can have an increased kcat/KM*KI, when compared to previously known EPSPS enzymes. By “increase” is intended any statistically significant increase when compared to an appropriate control. In some embodiments, an appropriate control is a previously known EPSPS sequence, such as that set forth in SEQ ID NO:2 (maize), SEQ ID NO:7 (rice), SEQ ID NO:8 (sorghum), SEQ ID NO:9 (sunflower), SEQ ID NO:13 (soybean), SEQ ID NO:14 (wheat), SEQ ID NO:15 (Brassica rapa), SEQ ID NO:16 (tomato), or SEQ ID NO:17 (potato). In some embodiments, the increase in the kcat/KM*KI when compared to SEQ ID NO:2, 7, 8 9, 13, 14, 15, 16, or 17 can comprise about a 150, 200, 250, 300, 350, 400, 450, 500, 550, 600, 650, 700, 750, 800-fold or greater increase. In still further embodiments, kcat/KM*KI may include, for example, a kcat/KM*KI of more than about 2000, 2500, 3000, 3500, 4000, 4500, 5000, 5500, 6000, 6500, 7000, 7500, 8000, 8500, 9000, 9500, 10000, or more.

[2] = target: Oryza sativa EPSPS with 868-H6 mutations, SEQ ID NO:11 (Oryza sativa, UniProt Q93VK6, A482G/A67R/A69W/D368S/D468G/E457G/G168A/I274L/K149R/L164C/T345A/T427S/T507Q/V137Q/V504R); assay: EPSPS substrate saturation kinetics, rice H6; format: biochemical
Description: EPSPS activity was determined by quantifying the phosphate generated from the EPSPS reaction. Release of inorganic phosphate was coupled to reaction with 2-amino-6-mercapto-7-methylpurine ribonucleoside, catalyzed by purine-nucleoside phosphorylase (M R Webb, Proc. Natl. Acad. Sci. 89:4884-4887, 1992). The absorbance change that occurs was monitored at 360 nm, where the extinction is 11,200 M^−1 cm^−1, with a Spectramax plate reader (Molecular Devices). To determine kinetic parameters, the varied substrate was present at seven concentrations (the eighth being the blank, containing no substrate) ranging from 4 to 400 uM and the unvaried substrate present at saturation. […] Reactions were monitored with a Spectramax plate reader. […] KI was then calculated from the following form of the Michaelis-Menten equation for competitive inhibition: KI=KM[I]/(KM app−KM) KM approximates the dissociation constant of the enzyme-substrate complex while kcat is the rate of conversion of substrate to product when the substrate concentration is saturating. kcat/KM is a widely accepted parameter for catalytic efficiency when substrate concentration is low (˜KM). […] The parameter kcat/KM×KI is used to quantify both catalytic efficiency and insensitivity and thus the overall fitness of the enzyme. […]

[3] = target: Zea mays EPSPS variant 4N (Zea mays, UniProt O24566, A3N); assay: EPSPS reaction rate with or without 10 uM glyphosate, 4N; format: biochemical; details: pH 7; read-out: Reaction rate with 10 μM glyph, % no glyph; further: 50 µM PEP and S3P
[4] = test system: Glycine max (93Y21) cotyledon hairy roots; assay: Hairy root growth of transformed soybean cotyledons on 25 uM glyphosate; format: cell-based

Chain of Oryza sativa EPSPS with 868-H6 mutations, SEQ ID NO:11 (Q93VK6 64-511 with the stated changes): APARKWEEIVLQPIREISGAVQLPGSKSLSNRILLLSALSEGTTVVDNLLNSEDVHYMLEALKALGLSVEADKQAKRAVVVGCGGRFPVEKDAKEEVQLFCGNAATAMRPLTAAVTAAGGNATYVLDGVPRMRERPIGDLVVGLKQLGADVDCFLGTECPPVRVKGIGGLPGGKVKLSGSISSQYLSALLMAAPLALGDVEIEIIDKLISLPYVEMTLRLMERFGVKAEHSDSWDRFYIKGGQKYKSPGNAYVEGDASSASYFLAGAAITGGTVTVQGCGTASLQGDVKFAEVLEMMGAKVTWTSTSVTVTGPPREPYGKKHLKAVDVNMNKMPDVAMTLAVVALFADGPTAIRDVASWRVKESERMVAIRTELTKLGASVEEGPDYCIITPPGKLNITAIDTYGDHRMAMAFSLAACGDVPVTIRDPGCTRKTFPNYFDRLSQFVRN
Chain of EPSPS enzyme comprising 103I, 107S, and 445G (O24566 entry or part of it T102I/P106S/N444G): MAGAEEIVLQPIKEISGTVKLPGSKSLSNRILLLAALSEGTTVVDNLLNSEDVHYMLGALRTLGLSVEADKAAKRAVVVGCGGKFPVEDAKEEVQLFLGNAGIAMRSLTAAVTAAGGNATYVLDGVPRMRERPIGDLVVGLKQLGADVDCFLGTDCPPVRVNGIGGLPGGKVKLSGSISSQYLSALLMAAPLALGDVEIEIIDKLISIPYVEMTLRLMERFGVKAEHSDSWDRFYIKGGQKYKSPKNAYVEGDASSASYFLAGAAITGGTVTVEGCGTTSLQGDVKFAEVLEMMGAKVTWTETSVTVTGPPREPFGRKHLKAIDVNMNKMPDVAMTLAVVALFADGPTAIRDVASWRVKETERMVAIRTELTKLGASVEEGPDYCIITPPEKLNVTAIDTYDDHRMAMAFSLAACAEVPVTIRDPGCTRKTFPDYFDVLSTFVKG
Chain of Zea mays EPSPS variant 4N (O24566 entry or part of it A3N): as the sequence (O24566 entry or part of it T102I/P106S/N444G) above, with A4N, I103T, S107P, G445N counted along it

With `O=C(O)CNCP(=O)(O)O` [glyphosate, N-phosphonomethylglycine] the “(kcat/KM)*KI” value [1] was 2254, the Ki [2] was 907 µM and the “(kcat/KM)*KI” value ([2]; PEP as substrate, glyphosate as inhibitor) was 9200. The activity at 10 µM [3] was 7.56%, the hairy root formation ([4]; EPSPS driven by weaker promoters (UBQ3 and native), with glyphosate) was “Hairy roots were not formed” and the hairy root formation ([4]; UBQ10 promoter and H6, C1 and C2 variants, 25 uM glyphosate) was “generated hairy roots”. The root growth ([4]; native EPSPS (UBQ10 promoter), 25 uM glyphosate) was “no root growth”.
